Numbers after ± are expanded uncertainties.
Conditions: Liquid, Closed cell (Static) method

Row | Structure (SMILES) | vapor or sublimation pressure (273.15 K) | vapor or sublimation pressure (283.15 K) | vapor or sublimation pressure (293.15 K) | vapor or sublimation pressure (303.15 K) | vapor or sublimation pressure (313.15 K) | vapor or sublimation pressure (323.15 K) | vapor or sublimation pressure (333.15 K) | vapor or sublimation pressure (343.15 K) | vapor or sublimation pressure (353.15 K) | vapor or sublimation pressure (363.15 K)
1 | c1ccncc1 [pyridine] | 0.5993 ± 0.037 kPa | 1.136 ± 0.071 kPa | 2.049 ± 0.12 kPa | 3.535 ± 0.21 kPa | 5.863 ± 0.35 kPa | 9.383 ± 0.56 kPa | 14.55 ± 0.88 kPa | 21.92 ± 1.3 kPa | 32.17 ± 1.9 kPa | 46.13 ± 2.8 kPa
2 | c1ccsc1 [thiophene] | 2.778 ± 0.17 kPa | 4.893 ± 0.29 kPa | 8.217 ± 0.49 kPa | 13.23 ± 0.8 kPa | 20.52 ± 1.2 kPa | 30.8 ± 1.9 kPa | 44.88 ± 2.7 kPa | 63.71 ± 3.8 kPa | 88.33 ± 5.3 kPa | 119.9 ± 7.2 kPa

Reference: the NIST ThermoML archive (doi:10.1016/j.jct.2013.12.033)
